{"source": "patent US20240325385A1", "about": "“ANTI-TUMOR PHARMACEUTICAL COMPOSITION COMPRISING EZH2 INHIBITOR AND SCD1 INHIBITOR AND USE THEREOF” (PEKING UNIVERSITY THIRD HOSPITAL, priority 2021, published 2024)", "key": {"[1]": {"tested_on": "Burkitt lymphoma cells (Daudi)", "experiment": "CCK-8 cell proliferation/viability assay, Daudi", "assay_type": "cell-based", "settings": "for cell viability inhibited by GSK126, on fatty acid supplementation: with GSK126, CCK-8", "method": "(§1) FIG. 1: Hematological tumors are more sensitive to GSK126 than solid tumors. (A) Proliferation of B16F10, Huh7 and SMMC7721 cells in GSK126 (10-20 μM) treatment group was monitored by Incucyte S3, with 6 replicates per group; (B) viability of Daudi and THP-1 cells after GSK126 (200 nM-24 μM) treatment for 24 h and 48 h was measured by CCK-8 assay, with 5 replicates per group; (C) western blot analysis (WB) of B16F10 cells 48 h after the treatment without or with GSK126 (6 μM, 12 μM), with H3 used as an internal reference for histone. 5 to 6 replicates were established for each group, with *P<0.05, **P<0.01, and ***P<0.001, and ns for no statistical difference.\n(§2) FIG. 5: Effect of GSK126 on the metabolic profile of Daudi cells. (A) Orthogonal partial least squares discriminant analysis (OPLS-DA) score plot based on metabolic analysis (6 replicates per group). C: control, G: GSK126 treatment. (B) Score plot for validating the OPLS-DA model (R2Y=0.973; Q2Y=0.931). (C) The number of metabolites of each category in metabolomics. […] (E) Viability of Daudi cells after palmitic acid treatment was analyzed by CCK-8 kit (3 replicates per group). 3-6 replicates per group, *P<0.05, **P<0.01.\n(§3) FIG. 6: The combination with an SCD1 inhibitor enhances the inhibitory effect of GSK126 on cancer cells. (A) Differential metabolites between DMSO and GSK126-treated Daudi cells. […] Metabolite categories are shown in different colors. […] (C) The mRNA levels of lipid metabolism genes in GSK126-treated Daudi cells were detected by RT-qPCR (3 replicates per group). (D) Viability of GSK126 and palmitinic acid-treated Daudi cells was analyzed by CCK-8 assay kit (5 replicates per group). (E) Viability of GSK126 and stearic acid-treated Daudi cells was analyzed by CCK-8 assay kit (5 replicates per group). (F) Proliferation curves of B16F10 and SMMC7721 cells treated with GSK126 and MF-438 were monitored by IncuCyte S3 (5 replicates per group). (G) CCK-8 assay kit detects the viability of B16F10 and SMMC7721 cells treated with GSK126 and MF-438. CI is calculated by CompuSyn software. CI<0.9 indicates synergism and CI>1.1 indicates antagonism. (H) Schematic diagram of mouse tumor-bearing experiment. (I-J) Tumor weight (I) and tumor growth curve (J) of the mice loaded with B16F10 cells. The tumor volume was measured with a vernier caliper every 2 days. Tumor volume=(length*width*width)/2. (K) Representative tumor pictures of all experimental groups. 3-8 replicates per group, *P<0.05, **P<0.01, ***P<0.001."}, "Daudi cells": {"tested_on": "Daudi cells", "experiment": "UPLC-MS/MS metabolomics of Daudi cells", "assay_type": "cell-based", "settings": "GSK126 6 μM vs control", "method": "as §2, §3\nIn order to verify that the lipid metabolism of cancer cells is the key factor affecting the sensitivity of the EZH2 inhibitor, UPLC-MS/MS system was used to analyze the metabolomics of the Daudi cells treated with GSK126 at a concentration of 6 μM (close to the IC50 value). The differences in the metabolome between the cells in the control group and the GSK126 treatment group were obvious by OPLS-DA analysis (sections A and B of FIG. 5). There were 71 metabolites with significant changes and VIP values greater than 1.0."}, "hepatoma Huh7 cells": {"tested_on": "hepatoma Huh7 cells", "experiment": "IncuCyte S3 live-cell proliferation (confluence), Huh7", "assay_type": "cell-based", "method": "as §1\n(§4) In order to accurately assess the responsiveness of solid tumor cells to EZH2 inhibitors, the effects of GSK126 at different concentrations on the proliferation of melanoma B16F10 cells and hepatoma Huh7 and SMMC-7721 cells were initially detected by IncuCyte S3×Live-Cell Analysis System.\n(§5) • (1) Cells in the logarithmic growth phase were digested with 0.25% trypsin and the digestion was terminated by the addition of serum-containing medium. It was then centrifuged at 200 g for 5 min; • (2) The single cell suspension at the corresponding concentration was prepared by a microscopic counting method, and then added into a 96-well culture plate, so that the volume of the culture medium in each well was 150 μL (about 5000 cells). […]"}, "[2]": {"tested_on": "ACLY, FASN, and SCD in Huh7", "experiment": "RT-qPCR and WB of fatty acid synthesis genes, Huh7", "assay_type": "cell-based", "description": "(§6) FIG. 4: Lipid accumulation in mice after GSK126 treatment. (A) H & E and oil red O staining of the liver tissue sections of the tumor-bearing mice in the control group and the GSK126 treatment group, in which the statistical results of negative or positive staining area were shown on the right (3 replicates per group); (B) TG level in the serum of the tumor-bearing mice in the control group and the GSK126 treatment group (5 replicates per group); (C-D) mRNA (C) and protein (D) levels of the genes related to fatty acid anabolism in the GSK126-treated HCC cells, as detected by RT-qPCR and WB (3 replicates per group). 3 to 5 replicates were established for each group, with *P<0.05, **P<0.01.\n(§7) C57BL/6 mice of 6-8 weeks old were subcutaneously implanted with B16F10 cells and treated with GSK126 again. […] Therefore, the expression of the fatty acid synthesis-related genes in GSK126-treated hepatocellular carcinoma (HCC) cell lines SMMC7721 and Huh7 was further detected."}, "[3]": {"tested_on": "ELOVL2, SCD1, and FASN in Daudi cells", "experiment": "RT-qPCR of lipid metabolism genes in Daudi cells", "assay_type": "cell-based", "settings": "mRNA", "method": "as §3, with “***P<0.001. […]” for “***P<0.001.”"}, "melanoma B16F10 cells [4]": {"tested_on": "melanoma B16F10 cells", "experiment": "IncuCyte S3 live-cell proliferation (confluence), B16F10", "assay_type": "cell-based", "method": "as §1, §4, §5"}, "hepatoma SMMC-7721 cells": {"tested_on": "hepatoma SMMC-7721 cells", "experiment": "IncuCyte S3 live-cell proliferation (confluence), SMMC-7721", "assay_type": "cell-based", "method": "as §1, §4, §5"}, "melanoma cells B16F10": {"tested_on": "melanoma cells B16F10", "experiment": "Cell scratch (migration) assay, B16F10", "assay_type": "cell-based", "settings": "B16F10, 10 μM, 36 h of culture, vs control group", "method": "(§8) FIG. 2: Melanoma cells B16F10 are less sensitive to GSK126. (A) Cell scratch assay, showing the effect of GSK126 (10 μM) treatment on the migration capability of B16F10 cells, with 3 replicates per group; (B-C) the effect of GSK126 (10, 13, and 15 μM) on the apoptosis rate of B16F10 cells, as examined by flow cytometry […] and Annexin V staining assay. 3 replicates were established for each group, with *P<0.05, **P<0.01, and ***P<0.001, and ns for no statistical difference.\n(§9) Next, to further validate the effect of GSK126 at 10 μM on melanoma cells B16F10, scratch assay was conducted. […] In addition, to assess the anti-survival effect of GSK126, B16F10 cells were treated by GSK126 at different concentrations for different durations, and the apoptosis rate of the cells was analyzed by flow cytometry (section B of FIG. 2) and live-cell fluorescence imaging (section C of FIG. 2)."}, "melanoma B16F10 cells [5]": {"tested_on": "melanoma B16F10 cells", "experiment": "Metabolite (fatty acid) levels in GSK126-treated B16F10 cells", "assay_type": "cell-based", "settings": "GSK126 group", "description": "FIG. 3: GSK126 results in significant elevated levels of 6 fatty acids in melanoma B16F10 cells.\nAmong the metabolites with significant changes, the levels of many fatty acids increased in the GSK126 group. There are five polyunsaturated fatty acids, including α-linolenic acid, DHA, EPA, linoleic acid, and γ-linolenic acid) and one monounsaturated fatty acid, i.e., 10Z-heptadienoic acid (FIG. 3)."}, "[6]": {"tested_on": "H3K27me3 level in B16F10 cells", "experiment": "Western blot of H3K27me3 in B16F10 cells", "assay_type": "cell-based", "settings": "6 μM, 48 h, WB", "method": "as §1"}, "[7]": {"tested_on": "ACLY, FASN, and SCD in SMMC7721", "experiment": "RT-qPCR and WB of fatty acid synthesis genes, SMMC7721", "assay_type": "cell-based", "description": "as §6, §7"}, "[8]": {"tested_on": "hematologic cancer cell lines", "settings": "most hematologic cancer cell lines; many studies; read-out: IC50 (half-maximal inhibitory concentration); cited from earlier work"}, "B16F10 cells": {"tested_on": "B16F10 cells", "experiment": "Apoptosis by flow cytometry and Annexin V live-cell imaging, B16F10", "assay_type": "cell-based", "settings": "B16F10, 10 μM", "method": "as §8, §9"}, "[9]": {"tested_on": "hematological tumor cells THP-1", "experiment": "CCK-8 cell proliferation/viability assay, THP-1", "assay_type": "cell-based", "settings": "10 μM, 24 h and 48 h", "method": "as §1"}, "[10]": {"settings": "GSK126 at different concentrations (10-20 μM)"}}, "note": "“Also recorded” adds a separate entry of the source."}
{"smiles": "CCCCCCCCCCCCCCCCCC(=O)O", "note": "[stearic acid]", "values": [{"measurement": "cell proliferation (viability) on fatty acid addition", "setting": "[1]; Daudi cells, CCK-8", "value": "moderately promoted"}, {"measurement": "cell viability inhibited by GSK126, on fatty acid supplementation", "setting": "[1]; Daudi cells", "value": "recovered the cell viability inhibited by GSK126 to varying degrees"}]}
{"smiles": "CC[C@H](C)n1cc(C)c2c(C(=O)NCc3c(C)cc(C)[nH]c3=O)cc(-c3ccc(N4CCNCC4)nc3)cc21", "note": "[GSK126]", "values": [{"measurement": "down-regulated metabolites", "setting": "Daudi cells", "value": 6}, {"measurement": "fatty acids (incl. ricinoleic acid, DPA n-6)", "setting": "Daudi cells", "value": "four fatty acids decreased"}, {"measurement": "metabolites with significant changes and VIP values greater than 1.0", "setting": "Daudi cells", "value": 71}, {"measurement": "up-regulated metabolites", "setting": "Daudi cells", "value": 65}, {"measurement": "cell proliferation", "setting": "hepatoma Huh7 cells; GSK126 10 μM", "value": "less effective"}, {"measurement": "cell proliferation", "setting": "hepatoma Huh7 cells; [10]", "value": "inhibited cell proliferation in a dose-dependent manner"}, {"measurement": "mRNA and protein levels of ACLY, FASN, and SCD", "setting": "[2]", "value": "significantly elevated"}, {"measurement": "expression of ELOVL2, SCD1, and FASN", "setting": "[3]", "value": "did not upregulate"}, {"measurement": "cell proliferation", "setting": "melanoma B16F10 cells [4]; GSK126 10 μM", "value": "less effective; also recorded: could not be effectively inhibited"}, {"measurement": "cell proliferation", "setting": "melanoma B16F10 cells [4]; [10]", "value": "inhibited cell proliferation in a dose-dependent manner"}, {"measurement": "cell proliferation", "setting": "hepatoma SMMC-7721 cells; GSK126 10 μM", "value": "less effective"}, {"measurement": "cell proliferation", "setting": "hepatoma SMMC-7721 cells; [10]", "value": "inhibited cell proliferation in a dose-dependent manner"}, {"measurement": "cell migration", "setting": "melanoma cells B16F10", "value": "did not effectively inhibit cell migration"}, {"measurement": "levels of fatty acids (five polyunsaturated, one monounsaturated)", "setting": "melanoma B16F10 cells [5]", "value": "increased"}, {"measurement": "sensitivity of Daudi cells", "setting": "[1]; 1 μM, CCK-8", "value": "very sensitive"}, {"measurement": "proliferation of Daudi cells", "setting": "[1]; 10 μM, 24 h and 48 h, CCK-8", "value": "significantly inhibited"}, {"measurement": "IC50", "setting": "[1]; Daudi cells", "value": "~6", "unit": "µM"}, {"measurement": "H3K27me3 level", "setting": "[6]", "value": "significantly down-regulated"}, {"measurement": "mRNA and protein levels of ACLY, FASN, and SCD", "setting": "[7]", "value": "significantly elevated"}, {"measurement": "IC50", "setting": "[8]", "value": "< 1", "unit": "µM"}, {"measurement": "induction of apoptosis", "setting": "B16F10 cells", "value": "limited capability to induce apoptosis"}, {"measurement": "proliferation of THP-1 cells", "setting": "[9]", "value": "significantly inhibited"}]}
{"smiles": "CCCCCCCCCCCCCCCC(=O)O", "note": "[palmitic acid]", "values": [{"measurement": "cell proliferation (viability) on fatty acid addition", "setting": "[1]; Daudi cells, CCK-8", "value": "moderately promoted"}, {"measurement": "cell viability inhibited by GSK126, on fatty acid supplementation", "setting": "[1]; Daudi cells", "value": "recovered the cell viability inhibited by GSK126 to varying degrees"}]}
